Experimental data published in the supplement of paper PMC10307832.

Key:
Experiment in all cases: relative viability (nuclei count vs DMSO), 5 days (fraction); higher = more cells survive
201T = test system: 201T
In short: (§1)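 Dosing by pin tool came one day after lung cancer cell lines were seeded in 1536-well plates, using either one drug or a fixed anchor-drug dose plus five library-drug doses (not always all listed) in √10 steps. After 5 days, nuclei were counted on 4× images. Relative viability is treated-well nuclei count divided by vehicle-well nuclei count, and values are medians of duplicate plates.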

ABC-1 = test system: ABC-1
In short: as §1

CAL-12T = test system: CAL-12T
In short: as §1

COR-L23 = test system: COR-L23
In short: as §1

HCC-44 = test system: HCC-44
In short: as §1

HOP-62 = test system: HOP-62
In short: as §1

LC-2-ad = test system: LC-2-ad
In short: as §1

LCLC-103H = test system: LCLC-103H
In short: as §1

NCI-H1355 = test system: NCI-H1355
In short: as §1

NCI-H1395 = test system: NCI-H1395
In short: as §1

NCI-H1651 = test system: NCI-H1651
In short: as §1

NCI-H1666 = test system: NCI-H1666
In short: as §1

Work on `O=c1[nH]c2ccccc2n1C1CCN(CCCC(c2ccc(F)cc2)c2ccc(F)cc2)CC1` [Pimozide] + CS(=O)(=O)N1CCN(Cc2cc3nc(-c4cccc5[nH]ncc45)nc(N4CCOCC4)c3s2)CC1 [Pictilisib] (partner 1 µM) yielded a relative viability (201T; first compound 0.08 µM) of 0.69, a relative viability (201T; first compound 0.253 µM) of 0.613 and a relative viability (201T; first compound 0.8 µM) of 0.6. It also gave a relative viability (201T; first compound 2.53 µM) of 0.669, a relative viability (201T; first compound 8 µM) of 0.599 and a relative viability (ABC-1; first compound 0.08 µM) of 0.596. For the same compound, the relative viability (ABC-1; first compound 0.253 µM) was 0.84, the relative viability (ABC-1; first compound 0.8 µM) was 0.743 and the relative viability (ABC-1; first compound 2.53 µM) was 0.589. The relative viability (ABC-1; first compound 8 µM) was 0.474, the relative viability (CAL-12T; first compound 0.08 µM) was 0.399 and the relative viability (CAL-12T; first compound 0.253 µM) was 0.244. The relative viability (CAL-12T; first compound 0.8 µM) was 0.418, the relative viability (CAL-12T; first compound 2.53 µM) was 0.462 and the relative viability (CAL-12T; first compound 8 µM) was 0.332. It also gave a relative viability (COR-L23; first compound 0.08 µM) of 0.705, a relative viability (COR-L23; first compound 0.253 µM) of 0.75 and a relative viability (COR-L23; first compound 0.8 µM) of 0.638. It also gave a relative viability (COR-L23; first compound 2.53 µM) of 0.702, a relative viability (COR-L23; first compound 8 µM) of 0.632 and a relative viability (HCC-44; first compound 0.08 µM) of 0.58. For the same compound, the relative viability (HCC-44; first compound 0.253 µM) was 0.695, the relative viability (HCC-44; first compound 0.8 µM) was 0.565 and the relative viability (HCC-44; first compound 2.53 µM) was 0.576. The relative viability (HCC-44; first compound 8 µM) was 0.558, the relative viability (HOP-62; first compound 0.08 µM) was 0.687 and the relative viability (HOP-62; first compound 0.253 µM) was 0.694. For the same compound, the relative viability (HOP-62; first compound 2.53 µM) was 0.687, the relative viability (HOP-62; first compound 8 µM) was 0.635 and the relative viability (LC-2-ad; first compound 0.08 µM) was 0.594. The relative viability (LC-2-ad; first compound 0.253 µM) was 0.405, the relative viability (LC-2-ad; first compound 0.8 µM) was 0.461 and the relative viability (LC-2-ad; first compound 2.53 µM) was 0.553. It also gave a relative viability (LC-2-ad; first compound 8 µM) of 0.305, a relative viability (LCLC-103H; first compound 0.08 µM) of 0.593 and a relative viability (LCLC-103H; first compound 0.253 µM) of 0.513. For the same compound, the relative viability (LCLC-103H; first compound 0.8 µM) was 0.466, the relative viability (LCLC-103H; first compound 2.53 µM) was 0.574 and the relative viability (LCLC-103H; first compound 8 µM) was 0.528. For the same compound, the relative viability (NCI-H1355; first compound 0.08 µM) was 0.371, the relative viability (NCI-H1355; first compound 0.253 µM) was 0.417 and the relative viability (NCI-H1355; first compound 0.8 µM) was 0.436. It also gave a relative viability (NCI-H1355; first compound 2.53 µM) of 0.466, a relative viability (NCI-H1355; first compound 8 µM) of 0.357 and a relative viability (NCI-H1395; first compound 0.08 µM) of 0.647. It also gave a relative viability (NCI-H1395; first compound 0.253 µM) of 0.598, a relative viability (NCI-H1395; first compound 0.8 µM) of 0.634 and a relative viability (NCI-H1395; first compound 2.53 µM) of 0.679. The relative viability (NCI-H1395; first compound 8 µM) was 0.681, the relative viability (NCI-H1651; first compound 0.08 µM) was 0.62 and the relative viability (NCI-H1651; first compound 0.253 µM) was 0.506. For the same compound, the relative viability (NCI-H1651; first compound 0.8 µM) was 0.685, the relative viability (NCI-H1651; first compound 2.53 µM) was 0.543 and the relative viability (NCI-H1651; first compound 8 µM) was 0.465. For the same compound, the relative viability (NCI-H1666; first compound 0.08 µM) was 0.323 and the relative viability (NCI-H1666; first compound 0.253 µM) was 0.512.
